Test results published in patent publication US11130748B2, “Compounds” (MISSION THERAPEUTICS LIMITED, priority 2015, dated 2021).
pIC50: −log10 of the molar value.

Target: USP30 (Homo sapiens (Human), UniProt Q70CQ3)
Test: USP30 biochemical IC50 assay
Settings: fluorescence polarisation, TAMRA labelled peptide linked to ubiquitin; 30 min pre-incubation, 2 hr read; read-out: IC50 range
Experimental: USP30 Biochemical IC50 Assay
Dilution plates were prepared at 21 times the final concentration (2100 μM for a final concentration of 100 μM) in 50% DMSO in a 96-well polypropylene V-bottom plate (Greiner #651201). A typical 8-point dilution series to be 100, 30, 10, 3, 1, 0.3, 0.1, 0.03 μM final. Reactions were performed in duplicate in black 384 well plates (small volume, Greiner 784076) in a final reaction volume of 21 μl. Either 1 μl of 50% DMSO or diluted compound was added to the plate. USP30 was diluted in reaction buffer (40 mM Tris, pH 7.5, 0.005% Tween 20, 0.5 mg/ml BSA, 5 mM beta-mercaptoethanol) to the equivalent of 0.05 μl/well and 10 μl of diluted USP30 was added to the compound. Enzyme and compound were incubated for 30 min at room temp. Reactions were initiated by the addition of 50 nM of TAMRA labelled peptide linked to ubiquitin via an iso-peptide bond as fluorescence polarisation substrate. Reactions were read immediately after addition of substrate and following a 2 hr incubation at room temperature. Readings were performed on a Pherastar Plus (BMG Labtech). λ Excitation 540 nm; λ Emission 590 nm.

Sequence of USP30 (Q70CQ3 57-517): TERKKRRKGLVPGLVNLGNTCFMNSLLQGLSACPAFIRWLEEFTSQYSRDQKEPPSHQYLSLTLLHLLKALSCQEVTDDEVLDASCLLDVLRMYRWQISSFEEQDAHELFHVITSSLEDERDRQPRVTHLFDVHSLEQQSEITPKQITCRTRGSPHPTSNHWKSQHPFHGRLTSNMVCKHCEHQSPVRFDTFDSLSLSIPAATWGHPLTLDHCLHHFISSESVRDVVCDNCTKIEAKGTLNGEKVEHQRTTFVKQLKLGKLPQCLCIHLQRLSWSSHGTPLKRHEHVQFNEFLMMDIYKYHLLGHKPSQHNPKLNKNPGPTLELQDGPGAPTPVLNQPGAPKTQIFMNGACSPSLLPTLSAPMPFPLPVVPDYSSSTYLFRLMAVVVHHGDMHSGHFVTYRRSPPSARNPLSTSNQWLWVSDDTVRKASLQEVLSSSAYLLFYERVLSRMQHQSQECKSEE

SMILES | pIC50
CC(Nc1cc2ccccc2cn1)C1CCN(C#N)C1 (stereo not shown) [Example 50, 3-(1-(Isoquinolin-3-ylamino)ethyl)pyrrolidine-1-carbonitrile] | 5.00 to 6.00
CC(Nc1cc2cc(C#N)ccc2cn1)C1CCN(C#N)C1 (stereo not shown) [Example 51, 3-((1-(1-Cyanopyrrolidin-3-yl)ethyl)amino)isoquinoline-6-carbonitrile] | 5.00 to 6.00
N#CC(Nc1nc2ccccc2s1)C1CCN(C#N)C1 (stereo not shown) [Example 52, 3-((Benzo[d]thiazol-2-ylamino)(cyano)methyl)pyrrolidine-1-carbonitrile] | 6.00 to 7.00
CC(Nc1nc2ccc(C#N)cc2s1)C1CCN(C#N)C1 (stereo not shown) [Example 53, 2-((1-(1-Cyanopyrrolidin-3-yl)ethyl)amino)benzo[d]thiazole-6-carbonitrile] | 5.00 to 6.00
N#CN1C[C@H]2CN(c3ncc(-c4ccccc4)s3)C(=O)[C@H]2C1 [Example 54, (3aR,6aS)-4-Oxo-5-(5-phenylthiazol-2-yl)hexahydropyrrolo[3,4-c]pyrrole-2(1H)-carbonitrile] | 5.00 to 6.00
N#CN1CC[C@H](CNC(=O)c2cc(-c3cccc(Cl)c3)no2)C1 [Example 55, (R)-3-(3-Chlorophenyl)-N-((1-cyanopyrrolidin-3-yl)methyl)isoxazole-5-carboxamide] | > 7.00
N#CN1CC[C@H](CNC(=O)c2nc3ccccc3[nH]2)C1 [Example 56] | 5.00 to 6.00
N#CN1CC[C@H](CNC(=O)c2cc3ccccc3cn2)C1 [Example 57] | 5.00 to 6.00
N#CN1CC[C@H](CNC(=O)c2cc(-c3ccccc3)ccn2)C1 [Example 59] | 6.00 to 7.00
N#CN1CC[C@H](CNC(=O)c2ccc(-c3ccccc3)cn2)C1 [Example 60] | 6.00 to 7.00
N#CN1CC[C@H](CNC(=O)c2cn3ccc(Cl)cc3n2)C1 [Example 65, (R)-7-Chloro-N-((1-cyano-pyrrolidin-3-yl)methyl) imidazo[1,2-a] pyridine-2-carboxamide] | 5.00 to 6.00
N#Cc1cccc(-c2nnc(C(=O)NC[C@H]3CCN(C#N)C3)o2)c1 [Example 68, (R)-5-(3-Cyanophenyl)-N-((1-cyanopyrrolidin-3-yl)methyl)-1,3,4-oxadiazole-2-carboxamide] | > 7.00
N#Cc1cccc(-c2nnc(C(=O)NC[C@@H]3CCN(C#N)C3)o2)c1 [Example 69, (S)-5-(3-Cyanophenyl)-N-((1-cyanopyrrolidin-3-yl)methyl)-1,3,4-oxadiazole-2-carboxamide] | > 7.00
N#CN1CC[C@H](CNC(=O)c2cn(-c3ccccc3)cn2)C1 [Example 70, (R)—N-((1-Cyanopyrrolidin-3-yl)methyl)-1-phenyl-1H-imidazole-4-carboxamide] | 5.00 to 6.00
N#Cc1cccc(-n2cnc(C(=O)NC[C@H]3CCN(C#N)C3)c2)c1 [Example 71, (R)-1-(3-Cyanophenyl)-N-((1-cyanopyrrolidin-3-yl)methyl)-1H-imidazole-4-carboxamide] | > 7.00
COc1ccccc1-n1cnc(C(=O)NC[C@H]2CCN(C#N)C2)c1 [Example 73, (R)—N-((1-Cyanopyrrolidin-3-yl)methyl)-1-(2-methoxyphenyl)-1H-imidazole-4-carboxamide] | 6.00 to 7.00
COc1cccc(-n2cnc(C(=O)NC[C@H]3CCN(C#N)C3)c2)c1 [Example 74, (R)—N-((1-Cyanopyrrolidin-3-yl)methyl)-1-(3-methoxyphenyl)-1H-imidazole-4-carboxamide] | 6.00 to 7.00
N#CN1CC[C@H](CNC(=O)c2cn3cc(-c4cn[nH]c4)ccc3n2)C1 [Example 75, (R)—N-((1-Cyanopyrrolidin-3-yl)methyl)-6-(H-pyrazol-4-yl)imidazo[1,2-a]pyridine-2-carboxamide] | 5.00 to 6.00
N#CN1CC[C@H](CNC(=O)c2cn3cc(-c4ccn[nH]4)ccc3n2)C1 [Example 76] | 5.00 to 6.00
N#CN1CC[C@H](CNC(=O)c2cn3ccc(C4CC4)cc3n2)C1 [Example 77, (R)—N-((1-Cyanopyrrolidin-3-yl)methyl)-7-cyclopropylimidazo[1,2-a]pyridine-2-carboxamide] | 6.00 to 7.00
N#CN1CC[C@H](CNC(=O)c2cn(Cc3ccccc3)cn2)C1 [Example 78, (R)-1-Benzyl-N-((1-cyanopyrrolidin-3-yl)methyl)-1H-imidazole-4-carboxamide] | 6.00 to 7.00
N#CN1CC[C@H](CNC(=O)c2cn(CC3CC3)cn2)C1 [Example 79, (R)—N-((1-Cyanopyrrolidin-3-yl)methyl)-1-(cyclopropylmethyl)-1H-imidazole-4-carboxamide] | 5.00 to 6.00
